Assay: xn = mol fraction of the nth substance listed
Conditions: 101 kPa, Liquid; for viscosity: Capillary tube (Ostwald / Ubbelohde) method

CCOC(=O)OCC [diethyl carbonate] + Cc1ccccc1
Conditions	mass density [kg/m3]	viscosity [mPa·s]
298.15 K, x1 = 0.1014	874.5	0.573
298.15 K, x1 = 0.1984	885.94	0.59
298.15 K, x1 = 0.3006	897.67	0.608
298.15 K, x1 = 0.4024	908.97	0.627
298.15 K, x1 = 0.5212	921.72	0.649
298.15 K, x1 = 0.6022	930.18	0.664
298.15 K, x1 = 0.7016	940.28	0.684
298.15 K, x1 = 0.7995	949.95	0.702
298.15 K, x1 = 0.8975	959.36	0.722
298.15 K, x1 = 1	968.97	0.746
303.15 K, x1 = 0.1014	870.46	0.542
303.15 K, x1 = 0.1984	881.62	0.557
303.15 K, x1 = 0.3006	893.06	0.573
303.15 K, x1 = 0.4024	904.06	0.59
303.15 K, x1 = 0.5212	916.47	0.609
303.15 K, x1 = 0.6022	924.71	0.622
303.15 K, x1 = 0.7016	934.52	0.639
303.15 K, x1 = 0.7995	943.93	0.657
303.15 K, x1 = 0.8975	953.08	0.674
303.15 K, x1 = 1	962.39	0.695
313.15 K, x1 = 0.1014	860.95	0.484
313.15 K, x1 = 0.1984	872.04	0.497
313.15 K, x1 = 0.3006	883.39	0.51
313.15 K, x1 = 0.4024	894.33	0.523
313.15 K, x1 = 0.5212	906.66	0.539
313.15 K, x1 = 0.6022	914.85	0.55
313.15 K, x1 = 0.7016	924.6	0.564
313.15 K, x1 = 0.7995	933.95	0.579
313.15 K, x1 = 0.8975	943.04	0.593
313.15 K, x1 = 1	952.32	0.61
323.15 K, x1 = 0.1014	850.49	0.434
323.15 K, x1 = 0.1984	861.33	0.445
323.15 K, x1 = 0.3006	872.43	0.457
323.15 K, x1 = 0.4024	883.11	0.468
323.15 K, x1 = 0.5212	895.17	0.481
323.15 K, x1 = 0.6022	903.16	0.491
323.15 K, x1 = 0.7016	912.68	0.503
323.15 K, x1 = 0.7995	921.81	0.515
323.15 K, x1 = 0.8975	930.72	0.527
323.15 K, x1 = 1	939.78	0.541
333.15 K, x1 = 0.1014	841.39	0.394
333.15 K, x1 = 0.1984	852.01	0.403
333.15 K, x1 = 0.3006	862.85	0.413
333.15 K, x1 = 0.4024	873.3	0.422
333.15 K, x1 = 0.5212	885.09	0.434
333.15 K, x1 = 0.6022	892.88	0.442
333.15 K, x1 = 0.7016	902.2	0.452
333.15 K, x1 = 0.7995	911.11	0.461
333.15 K, x1 = 0.8975	919.81	0.471
333.15 K, x1 = 1	928.69	0.483
343.15 K, x1 = 0.1014	831.46	0.358
343.15 K, x1 = 0.1984	841.79	0.365
343.15 K, x1 = 0.3006	852.32	0.373
343.15 K, x1 = 0.4024	862.48	0.382
343.15 K, x1 = 0.5212	873.94	0.391
343.15 K, x1 = 0.6022	881.51	0.398
343.15 K, x1 = 0.7016	890.57	0.407
343.15 K, x1 = 0.7995	899.24	0.415
343.15 K, x1 = 0.8975	907.69	0.425
343.15 K, x1 = 1	916.33	0.435
353.15 K, x1 = 0.1014	821.53	0.318
353.15 K, x1 = 0.1984	831.67	0.326
353.15 K, x1 = 0.3006	842.02	0.334
353.15 K, x1 = 0.4024	852.02	0.342
353.15 K, x1 = 0.5212	863.29	0.352
353.15 K, x1 = 0.6022	870.74	0.358
353.15 K, x1 = 0.7016	879.66	0.367
353.15 K, x1 = 0.7995	888.2	0.375
353.15 K, x1 = 0.8975	896.52	0.384
353.15 K, x1 = 1	905.02	0.393
363.15 K, x1 = 0.1014	808.79	0.293
363.15 K, x1 = 0.1984	819.07	0.3
363.15 K, x1 = 0.3006	829.57	0.306
363.15 K, x1 = 0.4024	839.71	0.313
363.15 K, x1 = 0.5212	851.16	0.322
363.15 K, x1 = 0.6022	858.77	0.328
363.15 K, x1 = 0.7016	867.85	0.336
363.15 K, x1 = 0.7995	876.55	0.343
363.15 K, x1 = 0.8975	885.04	0.351
363.15 K, x1 = 1	893.71	0.358
